Source: patent publication US9771357B2, “ALXR agonist compound” (ONO PHARMACEUTICAL CO., LTD., priority 2013, dated 2017)

target: T1, ALXR (Homo sapiens, UniProt P25090); assay: IP1 (Inositol Monophosphate) Assay; format: cell-based; details: ALXR/Gα16 expression CHO-K1 cell strain; 3 μM
T1 construct: expressed in transfected cells; host or cells: CHO-K1
T1 sequence (P25090 1-351): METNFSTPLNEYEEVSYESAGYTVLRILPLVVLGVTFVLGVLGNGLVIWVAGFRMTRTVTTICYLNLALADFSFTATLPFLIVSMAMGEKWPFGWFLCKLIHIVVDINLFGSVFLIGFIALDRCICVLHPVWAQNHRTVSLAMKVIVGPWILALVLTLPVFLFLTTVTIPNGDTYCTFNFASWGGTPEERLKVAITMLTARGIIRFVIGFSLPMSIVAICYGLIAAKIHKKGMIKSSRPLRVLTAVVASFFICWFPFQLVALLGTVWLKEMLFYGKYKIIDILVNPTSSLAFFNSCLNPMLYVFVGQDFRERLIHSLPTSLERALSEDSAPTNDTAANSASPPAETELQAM
Experimental: IP1 (Inositol Monophosphate) Assay
An ALXR/Gα16 expression CHO-K1 cell strain having 3×10^4 cells/100 μL was seeded on a 96-well plate using an F-12 culture medium (10% FBS, 100 μmol/L nonessential amino acid, 100 U/mL penicillin, 100 μg/mL streptomycin, 0.25 μg/mL Amphotericin B, 400 μg/mL Geneticin, and 5 μg/mL Puromycin), and cultured at 37° C. in 5% CO2 overnight. After the culture supernatant was removed, a 70-μL Basal buffer (10 mmol/L HEPES, 1 mmol/L CaCl2, 0.5 mmol/L MgCl2, 4.2 mmol/L KCl, 146 mmol/L NaCl, 5.5 mmol/L glucose, 50 mmol/L LiCl), each buffer containing one of the compounds and the reference example compound, was added. Here, as the medium group, a Basal buffer containing 1% DMSO was used. After the cell strain was further cultured at 37° C. in 5% CO2 for 30 minutes, IP1-d2 conjugate (Cisbio) and Anti-IP1 cryptate Tb conjugate (Cisbio) diluted with Lysis buffer (Cisbio) were each added in an amount of 15 μL. The culture was allowed to stand for 1 hour under shaded conditions at room temperature. Subsequently, using EnVision (PerkinElmer), measurement was performed at an excitation wavelength of 320 nm and fluorescence wavelengths of 620 nm and 665 nm, and the fluorescence ratio 665 nm/620 nm was calculated. With respect to the IP1 concentration, a calibration curve was produced using an IP1 calibrator (Cisbio) to be converted into concentration. The measured values were analyzed using XLfit (IDBS).

With `O=C(Nc1cccnc1)N1CCC(c2nc(-c3ccccc3)cs2)CC1` [Reference Example Compound, 4-(4-Phenyl-1,3-thiazol-2-yl)-N-(3-pyridyl)-1-piperidinecarboxamide, reference compound] the “enhancement of IP1 concentration as compared with the medium group” value was “no enhancement was seen”.

same assay, conditions: compound at 3 μM; ALXR/Gα16 expression CHO-K1 cell strain; 30 minutes; medium group 293.6

First: Cc1sc(C2(O)CCN(C(=O)Nc3ccc(C(F)(F)F)cc3)CC2)nc1-c1cccc(F)c1 [27(1), 4-[4-(3-Fluorophenyl)-5-methyl-1,3-thiazol-2-yl]-4-hydroxy-N-[4-(trifluoromethyl)phenyl]-1-piperidinecarboxamide]
Second: Cc1sc(C2CCN(C(=O)Nc3ccc(C(F)(F)F)cc3)CC2)nc1-c1cccc(F)c1 [29(2)]
The “IP1 Concentration” value of the first is lower: 539.3 nmol/L for the first, 853.7 nmol/L for the second.

Going from `O=C(Nc1ccc(C(F)(F)F)cc1)N1CCC(c2nc(-c3cccnc3)cs2)CC1` [Example 40, 4-[4-(3-Pyridyl)-1,3-thiazol-2-yl]-N-[4-(trifluoromethyl)phenyl]-1-piperidinecarboxamide] to `O=C(Nc1cccnc1)N1CCC(c2nc(-c3ccccc3)cs2)CC1` [Reference Example Compound, 4-(4-Phenyl-1,3-thiazol-2-yl)-N-(3-pyridyl)-1-piperidinecarboxamide, reference compound], the “IP1 Concentration” value falls from 789.9 nmol/L to 282.5 nmol/L.

Compared with `Cc1sc(C2(NS(C)(=O)=O)CCN(C(=O)Nc3ccc(C(F)(F)F)cc3)CC2)nc1-c1ccccc1` [Example 51, 4-(5-Methyl-4-phenyl-1,3-thiazol-2-yl)-4-[(methylsulfonyl)amino]-N-[4-(trifluoromethyl)phenyl]-1-piperidinecarboxamide], `N#Cc1sc(C2CCN(C(=O)Nc3ccc(C(F)(F)F)cc3)CC2)nc1-c1ccccc1` [Example 60, 4-(5-Cyano-4-phenyl-1,3-thiazol-2-yl)-N-[4-(trifluoromethyl)phenyl]-1-piperidinecarboxamide] is higher in “IP1 Concentration” value: 592.1 nmol/L for the first, 1020.9 nmol/L for the second.
